Converted amounts (≈) assume the structure as drawn.
Tests used:
[1] = system: S. aureus A-9606 (Pen-res.); assay: In vitro MIC, tube dilution; format: cell-based; settings: Staphylococcus aureus, Nutrient Broth, overnight incubation at 37° C., additional data table, read-out: MIC S. aureus (Pen-res.) A-9606
S. marcescens A20019 = assay: In vitro MIC, tube dilution; format: cell-based; settings: Serratia marcescens, A20019, tube dilution, Nutrient Broth, overnight incubation at 37° C.; additional data table
P. aeruginosa A21213 = assay: In vitro MIC, tube dilution; format: cell-based; settings: Pseudomonas aeruginosa, A21213, tube dilution, Nutrient Broth, overnight incubation at 37° C.; additional data table
S. pneumoniae A-9585 = assay: In vitro MIC, tube dilution; format: cell-based; settings: Streptococcus pneumoniae, A9585, Nutrient Broth, overnight incubation at 37° C., additional data table
E. coli A20341-1 = assay: In vitro MIC, tube dilution; format: cell-based; settings: Escherichia coli, A203411, tube dilution, Nutrient Broth, overnight incubation at 37° C.; additional data table
S. faecalis A20688 = assay: In vitro MIC, tube dilution; format: cell-based; settings: Enterococcus faecalis, A20688, tube dilution, Nutrient Broth, overnight incubation at 37° C.; additional data table
P. aeruginosa A-9843a = assay: Protective effect in the intramuscular treatment of infected mice (PD50); format: in vivo; settings: Pseudomonas aeruginosa, A9843A, im, read-out: PD50/treatment, P. aeruginosa A9843A
Method: The PD50 (dose in mg/kg required to give protection to 50% of the infected mice) is indicated.
Treatment Schedule: Mice were treated i.m. with drugs 0 and 2 hours post-infection; 5 mice per dose were used for each test
*For compound of Ex. 2, mice were infected i.p. with 2 × 10^9
compounds of Ex. 4 and 5, mice were infected i.p. with ~9 ×
were treated i.m. with drugs 0 and 2 h postinfection.

C[C@@H](O)[C@H]1C(=O)N2C(C(=O)[O-])=C(SCC[N+]3(C)CCN(C)CC3)C[C@H]12 [Example 4, (5R,6S)3-[2-(1,4-dimethyl-1-piperazinium)-ethylthio]-6-[1-(R)-hydroxyethyl]-7-oxo-1-azabicyclo-[3.2.0]hept-2-ene-2-carboxylate]
MIC [1]: 0.06 µg/mL (≈ 0.162 µM) | MIC (S. marcescens A20019): 0.25 µg/mL (≈ 0.677 µM) | MIC (P. aeruginosa A21213): 1 µg/mL (≈ 2.71 µM) | MIC (S. pneumoniae A-9585): 0.004 µg/mL (≈ 0.0108 µM) | MIC (E. coli A20341-1): 0.13 µg/mL (≈ 0.352 µM) | MIC (S. faecalis A20688): 2 µg/mL (≈ 5.41 µM) | ED50 (P. aeruginosa A-9843a): 2.7 mg/kg

Source: patent US4536335A, “Carbapenem antibiotics” (Bristol-Myers Company, priority 1983, dated 1985)
